Laboratory results as given in US20080009418A1, “Selective Inhibitors” (Alchemia LTD., priority 2004, published 2008).

How the values were obtained:
Human δ-opioid (DOP) = target: T1, Human δ-opioid (DOP) (Homo sapiens, UniProt P41143); test: Radioligand binding, human δ-opioid (DOP) membranes, FlashPlate, [3H]-Bremazocine; settings: compound at 10 μM; human δ-opioid (DOP) membranes
T1 construct: purchased Perkin Elmer Biosignal
Outline: (§1)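 Cloned human receptor membranes were coated onto FlashPlate wells and incubated with radioligand and compound (added from a 0.5 mM DMSO daughter plate) for 1 hour at room temperature in the dark. Scintillation counting gave percent inhibition, with DMSO defining total and reference ligand defining non-specific binding.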

Human κ-Opioid (KOP) = target: T2, Human κ-Opioid (KOP) (Homo sapiens, UniProt P41145); test: Radioligand binding, human κ-opioid (KOP) membranes, filtration, [3H]-Diprenorphine; settings: compound at 10 μM; human κ-opioid (KOP) membranes
T2 construct: purchased Perkin Elmer Biosignal
Outline: (§2)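 Percent inhibition of radioligand binding measured on recombinant human membranes: NK1 with [125I]-Substance P, KOP with [3H]-Diprenorphine. Incubation 1 h at room temperature, then harvest onto 0.3% PEI-soaked filters, cold Tris-HCl pH 7.4 washes and scintillation counting; non-specific binding from reference ligand wells.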

Human Melanocortin (MC3) = target: T3, Human Melanocortin (MC3) (Homo sapiens, UniProt P41968); test: Radioligand binding, human melanocortin MC3 membranes, FlashPlate, [125I]-NDP-αMSH; settings: compound at 10 μM; human melanocortin MC3 membranes
T3 construct: purchased Perkin Elmer Biosignal
Outline: as §1

Human Melanocortin (MC4) = target: T4, Human Melanocortin (MC4) (Homo sapiens, UniProt P32245); test: Radioligand binding, human melanocortin MC4 membranes, FlashPlate, [125I]-NDP-αMSH; settings: compound at 10 μM; human melanocortin MC4 membranes
T4 construct: purchased Perkin Elmer Biosignal
Outline: as §1

Human melanocortin (MC5) = target: T5, Human melanocortin (MC5) (Homo sapiens, UniProt P33032); test: Radioligand binding, human melanocortin MC5 membranes, FlashPlate, [125I]-NDP-αMSH; settings: compound at 10 μM; human melanocortin MC5 membranes
T5 construct: purchased Perkin Elmer Biosignal
Outline: as §1

[1] = target: T6, Human melanin-concentrating hormone (MCH1) (Homo sapiens, UniProt Q99705); test: Radioligand binding, human melanin-concentrating hormone MCH1 membranes, FlashPlate, [125I]-S36057; settings: compound at 10 μM; human MCH1 membranes
T6 construct: purchased Perkin Elmer Biosignal
Outline: as §1

Human μ-opioid (MOP) = target: T7, Human μ-opioid (MOP) (Homo sapiens, UniProt P35372); test: Radioligand binding, human μ-opioid (MOP) membranes, FlashPlate, [3H]-Naloxone; settings: compound at 10 μM; human μ-opioid (MOP) membranes
T7 construct: purchased Perkin Elmer Biosignal
Outline: as §1

Human neurokinin (NK1) = target: T8, Human neurokinin (NK1) (Homo sapiens, UniProt P25103); test: Radioligand binding, human neurokinin NK1 membranes, filtration, [125I]-Substance P; settings: compound at 10 μM; human neurokinin NK1 membranes
T8 construct: purchased Perkin Elmer Biosignal
Outline: as §2

[2] = target: T9, Human neuropeptide Y (NPY-Y1) (Homo sapiens, UniProt P25929); test: Radioligand binding, human neuropeptide Y NPY-Y1 membranes, FlashPlate, [125I]-PYY; settings: compound at 10 μM; human NPY-Y1 membranes
T9 construct: purchased Perkin Elmer Biosignal
T9 sequence (P25929 1-384): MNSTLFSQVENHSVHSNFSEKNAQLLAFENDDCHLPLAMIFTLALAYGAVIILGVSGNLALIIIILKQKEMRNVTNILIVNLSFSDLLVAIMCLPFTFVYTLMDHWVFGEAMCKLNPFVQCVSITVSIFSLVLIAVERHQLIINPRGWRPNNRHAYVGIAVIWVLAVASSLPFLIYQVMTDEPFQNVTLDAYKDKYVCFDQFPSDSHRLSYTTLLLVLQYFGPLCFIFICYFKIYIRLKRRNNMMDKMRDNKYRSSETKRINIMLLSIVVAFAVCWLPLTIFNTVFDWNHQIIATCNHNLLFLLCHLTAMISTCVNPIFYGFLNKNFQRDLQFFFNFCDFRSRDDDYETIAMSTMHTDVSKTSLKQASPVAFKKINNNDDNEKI
Outline: as §1

Human opioid (ORL1) = target: T10, Human opioid (ORL1) (Homo sapiens, UniProt P41146); test: Radioligand binding, human opioid ORL1 membranes, FlashPlate, [125I]-Nociceptin; settings: compound at 10 μM; human ORL1 membranes
T10 construct: purchased Perkin Elmer Biosignal
Outline: as §1

Mouse urotensin (mUR2) = target: T11, Mouse urotensin (mUR2) (Mus musculus, UniProt Q8VIH9); test: Radioligand binding, mouse urotensin mUR2 membranes, FlashPlate, [125I]-Urotensin II; settings: compound at 10 μM; mouse urotensin mUR2 membranes
T11 construct: purchased Perkin Elmer Biosignal
T11 sequence (Q8VIH9 1-385): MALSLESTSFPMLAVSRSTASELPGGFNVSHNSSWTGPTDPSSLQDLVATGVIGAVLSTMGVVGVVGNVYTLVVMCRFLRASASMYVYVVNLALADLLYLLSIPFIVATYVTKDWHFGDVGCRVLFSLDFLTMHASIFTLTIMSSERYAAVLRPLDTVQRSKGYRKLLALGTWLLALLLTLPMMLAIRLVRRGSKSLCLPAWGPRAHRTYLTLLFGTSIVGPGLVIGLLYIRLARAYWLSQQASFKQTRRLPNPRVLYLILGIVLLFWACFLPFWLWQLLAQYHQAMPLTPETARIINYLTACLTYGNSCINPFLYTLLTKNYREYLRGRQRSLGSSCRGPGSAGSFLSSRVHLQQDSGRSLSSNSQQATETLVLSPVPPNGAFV
Outline: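 Cloned mouse urotensin (mUR2) receptor membranes from Perkin Elmer Biosignal were immobilized in FlashPlate microplates using a proprietary coating. Each well got 19.5 μl buffer, then 0.5 μl of DMSO, reference ligand, or compound. Adding 5 μl of [125I]-Urotensin II, diluted to 5× final concentration in binding buffer, started binding. Plates were sealed with TopSeal-A and incubated 1 hour at room temperature in the dark. Wells were counted for 30 seconds each on a TopCount after a 60-second delay, and percentage inhibition was calculated.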

T5 sequence (P33032 whole entry): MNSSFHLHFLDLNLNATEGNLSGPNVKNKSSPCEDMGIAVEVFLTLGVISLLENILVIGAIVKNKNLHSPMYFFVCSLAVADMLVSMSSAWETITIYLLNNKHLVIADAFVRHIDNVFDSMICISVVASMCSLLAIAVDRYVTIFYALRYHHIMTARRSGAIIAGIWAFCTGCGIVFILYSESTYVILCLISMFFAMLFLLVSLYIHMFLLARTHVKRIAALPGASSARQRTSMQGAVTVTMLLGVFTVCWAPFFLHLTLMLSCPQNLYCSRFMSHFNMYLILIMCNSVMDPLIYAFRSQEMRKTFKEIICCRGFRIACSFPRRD
T8 sequence (P25103 whole entry): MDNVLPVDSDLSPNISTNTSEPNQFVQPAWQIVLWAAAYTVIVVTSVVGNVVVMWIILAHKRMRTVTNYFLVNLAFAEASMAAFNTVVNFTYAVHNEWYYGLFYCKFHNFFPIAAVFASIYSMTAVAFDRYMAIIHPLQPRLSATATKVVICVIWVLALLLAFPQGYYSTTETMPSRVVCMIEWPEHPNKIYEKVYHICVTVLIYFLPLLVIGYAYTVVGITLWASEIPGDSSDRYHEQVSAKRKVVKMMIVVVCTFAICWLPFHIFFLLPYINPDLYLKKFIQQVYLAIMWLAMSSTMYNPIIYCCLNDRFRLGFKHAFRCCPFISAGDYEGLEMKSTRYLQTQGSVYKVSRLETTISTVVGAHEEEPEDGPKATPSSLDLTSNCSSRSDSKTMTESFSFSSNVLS
T1 sequence (P41143 whole entry): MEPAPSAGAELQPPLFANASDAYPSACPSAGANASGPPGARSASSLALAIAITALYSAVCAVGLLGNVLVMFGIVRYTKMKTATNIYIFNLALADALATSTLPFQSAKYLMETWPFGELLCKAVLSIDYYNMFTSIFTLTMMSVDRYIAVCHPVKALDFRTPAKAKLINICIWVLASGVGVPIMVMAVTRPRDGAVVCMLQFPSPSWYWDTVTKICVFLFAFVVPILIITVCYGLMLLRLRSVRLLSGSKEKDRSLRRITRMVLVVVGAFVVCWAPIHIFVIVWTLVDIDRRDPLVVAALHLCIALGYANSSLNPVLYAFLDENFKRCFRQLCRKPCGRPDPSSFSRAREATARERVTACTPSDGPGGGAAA
T3 sequence (P41968 whole entry): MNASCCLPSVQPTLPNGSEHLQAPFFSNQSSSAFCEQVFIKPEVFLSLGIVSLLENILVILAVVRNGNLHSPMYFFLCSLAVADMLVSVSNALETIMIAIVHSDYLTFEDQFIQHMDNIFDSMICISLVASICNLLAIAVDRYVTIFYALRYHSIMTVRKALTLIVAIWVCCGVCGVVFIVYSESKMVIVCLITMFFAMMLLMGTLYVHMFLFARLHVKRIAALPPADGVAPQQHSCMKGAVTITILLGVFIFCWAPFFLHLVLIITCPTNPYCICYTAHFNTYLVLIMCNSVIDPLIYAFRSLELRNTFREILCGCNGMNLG
T2 sequence (P41145 whole entry): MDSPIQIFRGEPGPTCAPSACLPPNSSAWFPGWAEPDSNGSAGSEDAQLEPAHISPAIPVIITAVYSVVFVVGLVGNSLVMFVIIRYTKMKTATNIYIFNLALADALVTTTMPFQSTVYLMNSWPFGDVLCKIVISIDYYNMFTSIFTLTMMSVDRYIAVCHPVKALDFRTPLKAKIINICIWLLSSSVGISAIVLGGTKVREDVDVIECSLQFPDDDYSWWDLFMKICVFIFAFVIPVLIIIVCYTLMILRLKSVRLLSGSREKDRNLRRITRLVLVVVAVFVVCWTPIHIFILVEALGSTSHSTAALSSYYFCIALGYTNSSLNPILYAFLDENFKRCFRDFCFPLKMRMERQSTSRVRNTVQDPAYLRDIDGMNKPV
T6 sequence (Q99705 whole entry): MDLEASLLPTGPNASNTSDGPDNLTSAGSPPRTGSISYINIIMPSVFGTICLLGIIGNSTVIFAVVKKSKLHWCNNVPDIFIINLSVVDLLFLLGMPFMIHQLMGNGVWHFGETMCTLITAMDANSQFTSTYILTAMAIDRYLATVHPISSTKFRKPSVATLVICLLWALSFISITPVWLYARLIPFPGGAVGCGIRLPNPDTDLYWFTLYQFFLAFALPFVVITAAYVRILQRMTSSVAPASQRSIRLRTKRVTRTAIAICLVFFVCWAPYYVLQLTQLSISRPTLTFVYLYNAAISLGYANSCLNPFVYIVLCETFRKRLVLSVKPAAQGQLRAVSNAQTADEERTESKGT
T4 sequence (P32245 whole entry): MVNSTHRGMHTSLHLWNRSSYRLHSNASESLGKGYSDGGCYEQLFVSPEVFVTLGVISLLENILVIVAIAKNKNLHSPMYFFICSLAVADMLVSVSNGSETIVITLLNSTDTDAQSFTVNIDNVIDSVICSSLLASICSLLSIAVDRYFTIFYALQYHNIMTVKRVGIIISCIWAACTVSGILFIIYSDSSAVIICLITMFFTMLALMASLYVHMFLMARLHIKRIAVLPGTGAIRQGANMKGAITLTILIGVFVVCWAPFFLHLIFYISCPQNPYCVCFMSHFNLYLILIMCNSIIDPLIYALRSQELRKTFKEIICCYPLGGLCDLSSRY
T10 sequence (P41146 whole entry): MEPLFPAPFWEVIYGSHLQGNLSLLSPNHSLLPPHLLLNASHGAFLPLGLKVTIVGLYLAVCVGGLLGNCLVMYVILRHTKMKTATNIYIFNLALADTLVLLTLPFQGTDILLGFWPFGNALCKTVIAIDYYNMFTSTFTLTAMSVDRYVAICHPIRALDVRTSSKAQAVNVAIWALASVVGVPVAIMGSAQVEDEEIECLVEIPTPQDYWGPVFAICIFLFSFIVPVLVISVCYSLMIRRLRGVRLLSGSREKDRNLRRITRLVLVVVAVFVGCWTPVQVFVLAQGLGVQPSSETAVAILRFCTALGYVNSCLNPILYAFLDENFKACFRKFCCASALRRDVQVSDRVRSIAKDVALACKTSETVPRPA
T7 sequence (P35372 whole entry): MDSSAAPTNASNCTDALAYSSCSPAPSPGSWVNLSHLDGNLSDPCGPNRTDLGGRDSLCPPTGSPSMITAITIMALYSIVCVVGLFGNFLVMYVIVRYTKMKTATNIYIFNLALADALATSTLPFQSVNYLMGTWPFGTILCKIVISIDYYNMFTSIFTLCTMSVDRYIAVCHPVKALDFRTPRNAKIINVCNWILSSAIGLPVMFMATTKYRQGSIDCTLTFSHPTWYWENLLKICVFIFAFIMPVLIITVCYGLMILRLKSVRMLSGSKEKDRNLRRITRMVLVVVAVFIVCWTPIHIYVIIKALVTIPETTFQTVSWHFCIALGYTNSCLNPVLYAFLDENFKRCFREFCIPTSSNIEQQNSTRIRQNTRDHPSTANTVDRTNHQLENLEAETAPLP

SMILES	A1 radioligand binding inhibition (Human δ-opioid (DOP))	A2 radioligand binding inhibition (Human κ-Opioid (KOP))	A3 radioligand binding inhibition (Human Melanocortin (MC3))	A4 radioligand binding inhibition (Human Melanocortin (MC4))	A5 radioligand binding inhibition (Human melanocortin (MC5))	A6 radioligand binding inhibition [1]	A7 radioligand binding inhibition (Human μ-opioid (MOP))	A8 radioligand binding inhibition (Human neurokinin (NK1))	A9 radioligand binding inhibition [2]	A10 radioligand binding inhibition (Human opioid (ORL1))	A11 radioligand binding inhibition (Mouse urotensin (mUR2))
CO[C@H]1[C@H](O)[C@@H](COCc2ccc3ccccc3c2)OC(OCc2ccc(-c3ccccc3)cc2)[C@@H]1NC(=O)CCNC(=N)N (stereo partly drawn) [compound 56]	− (“−” indicates less than 50% inhibition at 10 μM)	− (“−” indicates less than 50% inhibition at 10 μM)	− (“−” indicates less than 50% inhibition at 10 μM)	− (“−” indicates less than 50% inhibition at 10 μM)	+ (“+” indicates greater than 50% inhibition at 10 μM)	− (“−” indicates less than 50% inhibition at 10 μM)	+ (“+” indicates greater than 50% inhibition at 10 μM)	+ (“+” indicates greater than 50% inhibition at 10 μM)	− (“−” indicates less than 50% inhibition at 10 μM)	− (“−” indicates less than 50% inhibition at 10 μM)	− (“−” indicates less than 50% inhibition at 10 μM)
COC[C@H]1OC(OCc2ccc(Cl)cc2)[C@H](NC(=O)CCNC(=N)N)[C@@H](OCc2ccccc2)[C@@H]1O (stereo partly drawn) [compound 34]	− (“−” indicates less than 50% inhibition at 10 μM)	− (“−” indicates less than 50% inhibition at 10 μM)	− (“−” indicates less than 50% inhibition at 10 μM)	− (“−” indicates less than 50% inhibition at 10 μM)	− (“−” indicates less than 50% inhibition at 10 μM)	− (“−” indicates less than 50% inhibition at 10 μM)	− (“−” indicates less than 50% inhibition at 10 μM)	+ (“+” indicates greater than 50% inhibition at 10 μM)	− (“−” indicates less than 50% inhibition at 10 μM)	− (“−” indicates less than 50% inhibition at 10 μM)	− (“−” indicates less than 50% inhibition at 10 μM)
COC[C@H]1OC(OCc2ccc(-c3ccccc3)cc2)[C@H](NC(=O)CCCN)[C@@H](OCc2ccc(Cl)cc2)[C@@H]1O (stereo partly drawn) [compound 12]	− (“−” indicates less than 50% inhibition at 10 μM)	− (“−” indicates less than 50% inhibition at 10 μM)	− (“−” indicates less than 50% inhibition at 10 μM)	− (“−” indicates less than 50% inhibition at 10 μM)	− (“−” indicates less than 50% inhibition at 10 μM)	− (“−” indicates less than 50% inhibition at 10 μM)	− (“−” indicates less than 50% inhibition at 10 μM)	+ (“+” indicates greater than 50% inhibition at 10 μM)	− (“−” indicates less than 50% inhibition at 10 μM)	− (“−” indicates less than 50% inhibition at 10 μM)	− (“−” indicates less than 50% inhibition at 10 μM)
